From patent US20230057568A1, “COMPOUNDS FOR TREATING FAMILIAL DYSAUTONOMIA” (PTC THERAPEUTICS, INC., priority 2019, published 2023)

Test system: Elongator complex protein 1 (ELP1, also referred to as IKBKAP)
Test: IKBKAP-HTRF Assay
Assay type: cell-based, human
Settings: FD patient-derived fibroblasts GM04589, 48 hours incubation; for EC2x for IKBKAP protein expression (concentration producing two times the amount of IKBKAP protein vs DMSO vehicle control): 7-point concentration curve; for MFI (maximum fold increase in IKBKAP protein abundance relative to the vehicle control): HTRF
How it was run: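 Sandwich HTRF (anti-IKAP d2 and K(9+8)) on cell lysates measured IKBKAP protein after overnight 4 °C incubation, read at 665 and 620 nm. Lysates came from FD patient cells exposed 48 hours to 7-point compound dilutions, in triplicate. Outputs: maximum fold increase over vehicle, and EC2× (the concentration giving twice the DMSO-control protein level).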

Structure (SMILES)	EC2x for IKBKAP protein expression (concentration producing two times the amount of IKBKAP protein vs DMSO vehicle control)	MFI (maximum fold increase in IKBKAP protein abundance relative to the vehicle control)
CC[C@H](N)Cc1cc2nc(Cl)nc(NCc3cccs3)c2s1 [Cpd 10, 6-[(2S)-2-aminobutyl]-2-chloro-N-[(thiophen-2-yl)methyl]thieno[3,2-d]pyrimidin-4-amine]	*** (between >0.02 μM and ≤0.5 μM)	**** (between >3.9 and <4.9)
CC(C)(C)[C@H](N)Cc1cc2nc(Cl)nc(NCc3ccco3)c2s1 [Cpd 7, 6-[(2R)-2-amino-3,3-dimethylbutyl]-2-chloro-N-[(furan-2-yl)methyl]thieno[3,2-d]pyrimidin-4-amine]	** (between >0.5 μL and ≤1 μM)	* (MFI<1.9)
C[C@H](N)Cc1cc2nc(Cl)nc(NCc3cccs3)c2s1 [Cpd 14, 6-[(2S)-2-aminopropyl]-2-chloro-N-[(thiophen-2-yl)methyl]thieno[3,2-d]pyrimidin-4-amine]	**** (between >0.005 μM and ≤0.02 μM)	***** (>4.9)
CN[C@@H](C)Cc1sc2c(NCc3ccco3)nc(Cl)nc2c1C [Cpd 79, 2-chloro-N-[(furan-2-yl)methyl]-7-methyl-6-[(2S)-2-(methylamino)propyl]thieno[3,2-d]pyrimidin-4-amine]	*** (between >0.02 μM and ≤0.5 μM)	**** (between >3.9 and <4.9)
Cc1c([C@H](C)N)sc2c(NCc3ccco3)nc(Cl)nc12 [Cpd 47, 6-[(1S)-1-aminoethyl]-2-chloro-N-[(furan-2-yl)methyl]-7-methylthieno[3,2-d]pyrimidin-4-amine]	*** (between >0.02 μM and ≤0.5 μM)	*** (between >2.9 and <3.9)
Cc1c(C[C@H](C)N)sc2c(NCc3nc(F)cs3)nc(Cl)nc12 [Cpd 92, 6-[(2S)-2-aminopropyl]-2-chloro-N-[(4-fluoro-1,3-thiazol-2-yl)methyl]-7-methylthieno[3,2-d]pyrimidin-4-amine]	***** (<0.005 μM)	***** (>4.9)
Cc1c(C[C@H](C)N)sc2c(NCc3sccc3F)nc(Cl)nc12 [Cpd 90, 6-[(2S)-2-aminopropyl]-2-chloro-N-[(3-fluorothiophen-2-yl)methyl]-7-methylthieno[3,2-d]pyrimidin-4-amine]	***** (<0.005 μM)	***** (>4.9)
C[C@H](N)Cc1sc2c(NCc3cccs3)nc(Cl)nc2c1Br [Cpd 82, 6-[(2S)-2-aminopropyl]-7-bromo-2-chloro-N-[(thiophen-2-yl)methyl]thieno[3,2-d]pyrimidin-4-amine]	***** (<0.005 μM)	***** (>4.9)
CC[C@H](N)Cc1sc2c(NCc3sccc3F)nc(Cl)nc2c1C [Cpd 91, 6-[(2S)-2-aminobutyl]-2-chloro-N-[(3-fluorothiophen-2-yl)methyl]-7-methylthieno[3,2-d]pyrimidin-4-amine]	**** (between >0.005 μM and ≤0.02 μM)	***** (>4.9)
Cc1c(C[C@@H]2CCOC(=O)N2)sc2c(NCc3ccco3)nc(Cl)nc12 [Cpd 52, (4S)-4-[(2-chloro-4-{[(furan-2-yl)methyl]amino}-7-methylthieno[3,2-d]pyrimidin-6-yl)methyl]-1,3-oxazinan-2-one]	* (EC2×>1 μM)	** (between >1.9 and <2.9)
Cc1ccc(CNc2nc(Cl)nc3c(C)c(C[C@H](C)N)sc23)o1 [Cpd 24, 6-[(2S)-2-aminopropyl]-2-chloro-7-methyl-N-[(5-methylfuran-2-yl)methyl]thieno[3,2-d]pyrimidin-4-amine]	*** (between >0.02 μM and ≤0.5 μM)	*** (between >2.9 and <3.9)
CC[C@H](N)Cc1cc2nc(Cl)nc(NCc3ccco3)c2s1 [Cpd 4, 6-[(2S)-2-aminobutyl]-2-chloro-N-[(furan-2-yl)methyl]thieno[3,2-d]pyrimidin-4-amine]	**** (between >0.005 μM and ≤0.02 μM)	**** (between >3.9 and <4.9)
Cc1c(C[C@H](C)N)sc2c(NCc3nccs3)nc(Cl)nc12 [Cpd 29, 6-[(2S)-2-aminopropyl]-2-chloro-7-methyl-N-[(1,3-thiazol-2-yl)methyl]thieno[3,2-d]pyrimidin-4-amine]	***** (<0.005 μM)	***** (>4.9)
C[C@H](N)Cc1sc2c(NCc3cccs3)nc(Cl)nc2c1-c1ccccc1 [Cpd 87, 6-[(2S)-2-aminopropyl]-2-chloro-7-phenyl-N-[(thiophen-2-yl)methyl]thieno[3,2-d]pyrimidin-4-amine]	* (EC2×>1 μM)	* (MFI<1.9)
C[C@H](N)Cc1sc2c(NCc3cccs3)nc(C#N)nc2c1Br [Cpd 83, 6-[(2S)-2-aminopropyl]-7-bromo-4-{[(thiophen-2-yl)methyl]amino}thieno[3,2-d]pyrimidine-2-carbonitrile]	**** (between >0.005 μM and ≤0.02 μM)	***** (>4.9)
Cc1c(C[C@H](C)N)sc2c(NCc3c(F)cncc3F)nc(Cl)nc12 [Cpd 64, 6-[(2S)-2-aminopropyl]-2-chloro-N-[(3,5-difluoropyridin-4-yl)methyl]-7-methylthieno[3,2-d]pyrimidin-4-amine]	**** (between >0.005 μM and ≤0.02 μM)	***** (>4.9)
Cc1csc2c(NCc3ccco3)nc(C(F)(F)F)nc12 [Cpd 25, N-[(furan-2-yl)methyl]-7-methyl-2-(trifluoromethyl)thieno[3,2-d]pyrimidin-4-amine]	* (EC2×>1 μM)	* (MFI<1.9)
Cc1c(C[C@@H](N)CO)sc2c(NCc3ccco3)nc(Cl)nc12 [Cpd 19, (2R)-2-Amino-3-(2-chloro-4-{[(furan-2-yl)methyl]amino}-7-methylthieno[3,2-d]pyrimidin-6-yl)propan-1-ol]	***** (<0.005 μM)	***** (>4.9)
C[C@H](N)Cc1cc2nc(Cl)nc(NCc3ccco3)c2s1 [Cpd 3, 6-[(2S)-2-aminopropyl]-2-chloro-N-[(furan-2-yl)methyl]thieno[3,2-d]pyrimidin-4-amine]	**** (between >0.005 μM and ≤0.02 μM)	**** (between >3.9 and <4.9)
Cc1c(C[C@@H](N)CCF)sc2c(NCc3ccco3)nc(Cl)nc12 [Cpd 51, 6-[(2S)-2-amino-4-fluorobutyl]-2-chloro-N-[(furan-2-yl)methyl]-7-methylthieno[3,2-d]pyrimidin-4-amine]	***** (<0.005 μM)	***** (>4.9)
CCc1c(C[C@H](C)N)sc2c(NCc3ccco3)nc(Cl)nc12 [Cpd 77, 6-[(2S)-2-aminopropyl]-2-chloro-7-ethyl-N-[(furan-2-yl)methyl]thieno[3,2-d]pyrimidin-4-amine]	**** (between >0.005 μM and ≤0.02 μM)	***** (>4.9)
Cc1c(C[C@H](C)N)sc2c(NCc3ccco3)nc(Cl)nc12 [Cpd 12, 6-[(2S)-2-aminopropyl]-2-chloro-N-[(furan-2-yl)methyl]-7-methylthieno[3,2-d]pyrimidin-4-amine]	***** (<0.005 μM)	***** (>4.9)
C[C@H](N)c1sc2c(NCc3ccco3)nc(-c3ccccc3)nc2c1-c1ccccc1 [Cpd 61, 6-[(1S)-1-aminoethyl]-N-[(furan-2-yl)methyl]-2,7-diphenylthieno[3,2-d]pyrimidin-4-amine]	* (EC2×>1 μM)	* (MFI<1.9)
Cc1c(C[C@H](C)N)sc2c(NCc3ccco3)nc(C3CC3)nc12 [Cpd 17, 6-[(2S)-2-aminopropyl]-2-cyclopropyl-N-[(furan-2-yl)methyl]-7-methylthieno[3,2-d]pyrimidin-4-amine]	* (EC2×>1 μM)	* (MFI<1.9)
Clc1nc(NCc2ccco2)c2sccc2n1 [Cpd 2, 2-chloro-N-[(furan-2-yl)methyl]thieno[3,2-d]pyrimidin-4-amine]	* (EC2×>1 μM)	*** (between >2.9 and <3.9)
